From BindingDB's records for doi:10.1016/j.bmcl.2018.11.015 (Boehringer Ingelheim Pharmaceuticals, 2019) come the findings set out here.

For orientation: IC50 means the concentration that gives 50% inhibition.

The structures appear in SMILES notation.

The nature of this assay: Antagonist activity at CCR1 in human THP1 cells assessed as inhibition of chemotaxis after 30 mins by Celltiter-glo reagent based luminescence assay.
In the case of `CC(C)(O)c1ccc2c(c1)/C(=C\CCN1CC[C@](O)(c3ccc(Cl)cc3)C(C)(C)C1)c1cccnc1CO2`, the IC50 is 1.8 nM.

For the compound `CC(C)[C@@H](NC(=O)NCC(C)(C)O)C(=O)N1CC[C@](O)(c2ccc(Cl)cc2)C(C)(C)C1`, the IC50 is 1.5 nM. For `COc1cc(N2CCN(C(=O)Cn3nc(-c4ncc[nH]4)c4cccnc43)CC2)ccc1Cl` the value was 4 nM; for `Cc1c(C(=O)NCc2cccc(C(F)(F)F)c2)cnn1-c1ccc(Cl)c(Cl)c1`, 1200 nM.
